Data: patent US5440016A, “Peptides of the formula (KFmoc) ZZZ and their uses” (priority 1993, dated 1995)
≈ marks a conversion by molar mass, not a printed value. Like-named read-outs stand apart in the source and are kept apart here. Square brackets hold non-standard residues; d marks the D form. Peptide text beside a SMILES is read from it. * marks the point of attachment. Fmoc = O=C(OCC1c2ccccc2-c2ccccc21)*

Experiments:
[1] = system: P. aeruginosa ATCC 27853; assay: Antimicrobial assay, P. aeruginosa; settings: Tables 22-23
Protocol: (§1) Escherichia coli ATCC 25922 and P. aeruginosa ATCC 27853 were used as Gram-negative (-) and Staphylococcus aureus ATCC 29213 as Gram-positive (+) bacteria. Bacteria were grown overnight at 37° C. in Mueller-Hinton (MH) broth. This culture was reinoculated and incubated at 37° C. to reach the exponential phase of bacteria growth, i.e., a final bacterial suspension containing 10^5 to 5×10^5 colony-forming units (CFU)/ml. The concentration of cells was established by plating 100 μl of different dilutions of the culture solution (e.g., 10^-2, 10^-3 and 10^-4) onto solid agar plates.
(§2) Following an overnight incubation at 37° C., the CFU thus formed were counted on each agar plate. In 96-well tissue culture plates, as control blanks, eight wells per plate contained only medium, while as a positive growth control, eight other wells contained medium plus cells.
(§3) The plates were incubated overnight at 37° C., and the optical density (OD) determined at 620 nm after different times of incubation.

[2] = system: Candida albicans ATCC 10231; settings: for IC50 (μg/ml) against C. albicans: Tables 22-23
[3] = system: Escherichia coli ATCC 25922; settings: for IC50 (μg/ml) against E. coli: Tables 22-23
Protocol: as §1, §2, §3

[4] = system: Staphylococcus aureus ATCC 29213; settings: for IC50 (μg/ml) against S. aureus: Tables 22-23
Protocol: as §1, §2, §3

[5] = system: Streptococcus sanguis ATCC 10556; settings: for IC50 (μg/ml) against S. sanguis: Tables 22-23
Protocol: Streptococcus sanguis ATCC 10556 (Gram-positive (+) bacteria present in tooth crevices) was grown overnight at 37° C. in Brain Heart Infusion (BHI) broth. This culture was reinoculated and incubated at 37° C. to reach the exponential phase of bacteria growth, i.e., a final bacterial suspension containing 10^5 to 5×10^5 colony-forming units (CFU)/ml. The concentration of cells was established by plating 100 μl of different dilutions of the culture solution (e.g., 10^-2, 10^-4) and 10^-4) onto solid agar plates. Following an overnight incubation at 37° C., the CFU thus formed were counted on each agar plate. In 96-well tissue culture plates, as control blanks, eight wells per plate contained only medium, while as a positive growth control, eight other wells contained medium plus cells. […] The plates were incubated overnight at 37° C., and the optical density (OD) determined at 620 nm after 20 to 24 hours incubation.

[6] = system: Human red blood cells (RBCs); assay: Hemolytic activity; format: cell-based; settings: for % hemolysis at 100 μg/ml: Tables 22-23
[7] = Tables 2-5, concentration necessary to inhibit 50% growth
[8] = Tables 15-17, lower parts (unnatural amino acids)
[9] = Tables 3-5, lower parts (unnatural amino acids)
[10] = Tables 7-9, lower parts (unnatural amino acids)
[11] = Tables 11-13, lower parts (unnatural amino acids)

Compound	IC50 against C. albicans ([2]; Tables 14-17)	IC50 against E. coli [3, 7]	IC50 against S. aureus ([4]; Tables 6-9)	IC50 against S. sanguis ([5]; Tables 10-13)	HD50 (concentration necessary to lyse 50% of the cells) ([6]; Tables 18-21)	also measured
CC(=O)N[C@H](CCCNC(=N)N)C(=O)N[C@H](CCCNC(=N)N)C(=O)N[C@H](Cc1c[nH]c2ccccc12)C(=O)N[C@H](Cc1c[nH]c2ccccc12)C(=O)N[C@H](CS)C(=O)N[C@@H](C(N)=O)C(C)C [Ac-rrwwcv-NH2] (Ac-[dR][dR][dW][dW][dC][dV]-NH2)						IC50 (μg/ml) against P. aeruginosa [1]: 58 to 88 µg/mL; IC50 (μg/ml) against C. albicans [2]: 107 to 119 µg/mL; IC50 (μg/ml) against E. coli [3]: 9 to 10 µg/mL; IC50 (μg/ml) against S. aureus [4]: 16 to 19 µg/mL; IC50 (μg/ml) against S. sanguis [5]: 7 to 8 µg/mL; % hemolysis at 100 μg/ml [6]: 10.0%
MagaininII-NH2 [reference compound]						IC50 (μg/ml) against P. aeruginosa [1]: 150 to 200 µg/mL; IC50 (μg/ml) against C. albicans [2]: 41 to 42 µg/mL; IC50 (μg/ml) against E. coli [3]: 72 to 98 µg/mL; IC50 (μg/ml) against S. aureus [4]: 32 to 64 µg/mL; IC50 (μg/ml) against S. sanguis [5]: 143 to 235 µg/mL
CC[C@@H](C)[C@@H](NC(=O)[C@H](CCCCN)NC(=O)[C@H](Cc1c[nH]c2ccccc12)NC(=O)[C@H](CCCCN)NC(=O)OCC1c2ccccc2-c2ccccc21)C(N)=O [(KFmoc)WKi-NH2] (Fmoc-KWK[dI]-NH2)	209 µg/mL (≈ 263 µM)	23 µg/mL (≈ 28.9 µM)	9 µg/mL (≈ 11.3 µM)	8 µg/mL (≈ 10.1 µM)	296 µg/mL	
(KFmoc)Wf(Bala)-NH2						IC50 against C. albicans [2, 8]: 170 μg/m; IC50 against E. coli [3, 9]: 70 μg/m; IC50 against S. aureus [4, 10]: 11 μg/m; IC50 against S. sanguis [5, 11]: 10 μg/m; HD50 (concentration necessary to lyse 50% of the cells) ([6]; Table 20, lower part): 360 μg/m
NCCCC[C@H](NC(=O)OCC1c2ccccc2-c2ccccc21)C(=O)N[C@@H](Cc1c[nH]c2ccccc12)C(=O)N[C@@H](CCCCN)C(=O)N[C@H](Cc1ccc(O)cc1)C(N)=O [(KFmoc)WKy-NH2] (Fmoc-KWK[dY]-NH2)	144 µg/mL (≈ 170 µM)	39 µg/mL (≈ 46.2 µM)	7 µg/mL (≈ 8.28 µM)	8 µg/mL (≈ 9.47 µM)	368 µg/mL	
NCCCC[C@H](NC(=O)OCC1c2ccccc2-c2ccccc21)C(=O)N[C@@H](Cc1c[nH]c2ccccc12)C(=O)N[C@@H](CCCCN)C(=O)N[C@H](CO)C(N)=O [(KFmoc)WKs-NH2] (Fmoc-KWK[dS]-NH2)	214 µg/mL (≈ 278 µM)	57 µg/mL (≈ 74.1 µM)	6 µg/mL (≈ 7.8 µM)	6 µg/mL (≈ 7.8 µM)	296 µg/mL	
NCCCC[C@H](NC(=O)OCC1c2ccccc2-c2ccccc21)C(=O)N[C@@H](Cc1c[nH]c2ccccc12)C(=O)N[C@@H](Cc1ccc(O)cc1)C(=O)N[C@H](CCCCN)C(N)=O [(KFmoc)WYk-NH2] (Fmoc-KWY[dK]-NH2)	121 µg/mL (≈ 143 µM)	18 µg/mL (≈ 21.3 µM)	5 µg/mL (≈ 5.92 µM)	5 µg/mL (≈ 5.92 µM)	62 µg/mL	
Ac-RRWWCL-NH2 [Ac-RRWWCL-NH2]						IC50 (μg/ml) against P. aeruginosa [1]: 46 to 54 µg/mL; IC50 (μg/ml) against C. albicans [2]: 65 to 95 µg/mL; IC50 (μg/ml) against E. coli [3]: 19 to 22 µg/mL; IC50 (μg/ml) against S. sanguis [5]: 18 to 21 µg/mL; % hemolysis at 100 μg/ml [6]: 5.0%
NCCCC[C@H](NC(=O)OCC1c2ccccc2-c2ccccc21)C(=O)N[C@@H](Cc1c[nH]c2ccccc12)C(=O)N[C@@H](CCCCN)C(=O)N1CCC[C@@H]1C(N)=O [(KFmoc)WKp-NH2] (Fmoc-KWK[dP]-NH2)	251 µg/mL (≈ 322 µM)	39 µg/mL (≈ 50.1 µM)	8 µg/mL (≈ 10.3 µM)	5 µg/mL (≈ 6.42 µM)	437 µg/mL	
CC(C)[C@@H](NC(=O)[C@H](CCCCN)NC(=O)[C@H](Cc1c[nH]c2ccccc12)NC(=O)[C@H](CCCCN)NC(=O)OCC1c2ccccc2-c2ccccc21)C(N)=O [(KFmoc)WKv-NH2] (Fmoc-KWK[dV]-NH2)	187 µg/mL (≈ 239 µM)	54 µg/mL (≈ 69.1 µM)	9 µg/mL (≈ 11.5 µM)	10 µg/mL (≈ 12.8 µM)	181 µg/mL	
(KFmoc)ci(Hyp)-NH2					39 µg/mL	IC50 against C. albicans [2, 8]: 205 μg/m; IC50 against E. coli [3, 9]: 52 μg/m; IC50 against S. aureus [4, 10]: 8 μg/m; IC50 against S. sanguis [5, 11]: 8 μg/m
CC(C)C[C@@H](NC(=O)[C@H](CCCCN)NC(=O)[C@H](Cc1c[nH]c2ccccc12)NC(=O)[C@H](CCCCN)NC(=O)OCC1c2ccccc2-c2ccccc21)C(N)=O [(KFmoc)WKl-NH2] (Fmoc-KWK[dL]-NH2)	121 µg/mL (≈ 152 µM)	20 µg/mL (≈ 25.2 µM)	5 µg/mL (≈ 6.29 µM)	5 µg/mL (≈ 6.29 µM)	166 µg/mL	
(KFmoc)WK(dOrn)-NH2	196 µg/mL	69 µg/mL	5 µg/mL	5 µg/mL	369 µg/mL	
CC(C)C[C@@H](NC(=O)[C@@H](Cc1ccccc1)NC(=O)[C@H](Cc1c[nH]c2ccccc12)NC(=O)[C@H](CCCCN)NC(=O)OCC1c2ccccc2-c2ccccc21)C(N)=O [(KFmoc)Wfl-NH2] (Fmoc-KW[dF][dL]-NH2)	127 µg/mL (≈ 156 µM)	28 µg/mL (≈ 34.4 µM)	2 µg/mL (≈ 2.46 µM)	2 µg/mL (≈ 2.46 µM)	197 µg/mL	
C[C@@H](NC(=O)[C@H](Cc1ccc(O)cc1)NC(=O)[C@H](Cc1c[nH]c2ccccc12)NC(=O)[C@H](CCCCN)NC(=O)OCC1c2ccccc2-c2ccccc21)C(N)=O [(KFmoc)WYa-NH2] (Fmoc-KWY[dA]-NH2)	249 µg/mL (≈ 316 µM)	87 µg/mL (≈ 110 µM)	5 µg/mL (≈ 6.35 µM)	5 µg/mL (≈ 6.35 µM)	74 µg/mL	
(KFmoc)WY(dOrn)-NH2					67 µg/mL	IC50 against C. albicans [2, 8]: 359 μg/m; IC50 against E. coli [3, 9]: 35 μg/m; IC50 against S. aureus [4, 10]: 5 μg/m; IC50 against S. sanguis [5, 11]: 7 μg/m
NCCCC[C@H](NC(=O)OCC1c2ccccc2-c2ccccc21)C(=O)N[C@@H](Cc1c[nH]c2ccccc12)C(=O)N[C@@H](CCCCN)C(=O)N[C@H](Cc1c[nH]c2ccccc12)C(N)=O [(KFmoc)WKw-NH2] (Fmoc-KWK[dW]-NH2)	116 µg/mL (≈ 134 µM)	15 µg/mL (≈ 17.3 µM)	4 µg/mL (≈ 4.61 µM)	4 µg/mL (≈ 4.61 µM)	32 µg/mL	
(KFmoc)Wf(dOrn)-NH2						IC50 against C. albicans [2, 8]: 54 μg/m; IC50 against E. coli [3, 9]: 19 μg/m; IC50 against S. aureus [4, 10]: 4 μg/m; IC50 against S. sanguis [5, 11]: 4 μg/m; HD50 (concentration necessary to lyse 50% of the cells) ([6]; Table 20, lower part): 42 μg/m
NCCCC[C@H](NC(=O)OCC1c2ccccc2-c2ccccc21)C(=O)N[C@@H](Cc1c[nH]c2ccccc12)C(=O)N[C@@H](CCCCN)C(=O)N[C@H](Cc1c[nH]cn1)C(N)=O [(KFmoc)WKh-NH2] (Fmoc-KWK[dH]-NH2)	156 µg/mL (≈ 190 µM)	52 µg/mL (≈ 63.5 µM)	6 µg/mL (≈ 7.33 µM)	6 µg/mL (≈ 7.33 µM)	313 µg/mL	
N=C(N)NCCC[C@@H](NC(=O)[C@@H](Cc1ccccc1)NC(=O)[C@H](Cc1c[nH]c2ccccc12)NC(=O)[C@H](CCCCN)NC(=O)OCC1c2ccccc2-c2ccccc21)C(N)=O [(KFmoc)Wfr-NH2] (Fmoc-KW[dF][dR]-NH2)	42 µg/mL (≈ 49 µM)	15 µg/mL (≈ 17.5 µM)	2 µg/mL (≈ 2.33 µM)	2 µg/mL (≈ 2.33 µM)	42 µg/mL	
NCCCC[C@H](NC(=O)OCC1c2ccccc2-c2ccccc21)C(=O)N[C@@H](Cc1c[nH]c2ccccc12)C(=O)N[C@@H](CCCCN)C(=O)N[C@H](CS)C(N)=O [(KFmoc)WKc-NH2] (Fmoc-KWK[dC]-NH2)	243 µg/mL (≈ 310 µM)	23 µg/mL (≈ 29.3 µM)	4 µg/mL (≈ 5.1 µM)	4 µg/mL (≈ 5.1 µM)	25 µg/mL	
